What is called inhibition is the drop in the measured response relative to a control, in per cent. Usually IC50 stands for the point on the concentration scale where inhibition reaches its midpoint. As usually defined, the EC50 is the concentration that produces a half-maximal response. The Ki is a dissociation constant, usually derived from enzyme kinetics or from competition with a known ligand.

Activity calls are given as the source filed them. No cut-off for these calls is given here.

These results are taken from ChEMBL document CHEMBL3217410, “New potent, short-linker BODIPY-630/650TM labelled fluorescent adenosine receptor agonists” (Medchemcomm, 2012).

The target in experiment [1] is T1, Adenosine receptor A1 (Homo sapiens) (UniProt P30542).
T1 sequence (whole entry): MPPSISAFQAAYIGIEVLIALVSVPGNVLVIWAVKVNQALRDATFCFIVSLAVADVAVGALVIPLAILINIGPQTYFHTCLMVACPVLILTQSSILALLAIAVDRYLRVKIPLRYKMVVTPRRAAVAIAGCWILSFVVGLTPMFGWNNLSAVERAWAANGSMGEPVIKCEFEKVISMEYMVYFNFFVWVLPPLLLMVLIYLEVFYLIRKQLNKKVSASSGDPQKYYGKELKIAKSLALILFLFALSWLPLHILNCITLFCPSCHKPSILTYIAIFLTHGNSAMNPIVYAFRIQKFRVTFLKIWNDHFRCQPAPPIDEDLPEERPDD
Briefly: Binding affinity to human adenosine A1 receptor expressed in CHO cells at 100 nM after 30 mins by confocal microscopy in presence of DPCPX. It is filed as cell-based.

For experiment [2], the target named is T1, Adenosine receptor A1 (Homo sapiens). Description: Agonist activity at human adenosine A1 receptor expressed in CHO cells assessed as Gi-mediated inhibition of forskolin-stimulated SPAP secretion incubated for 10 mins prior to forskolin challenge measured after 5 hrs in presence of 1 uM adenosine A1 receptor antagonist XAC by spectrophotometry. The experiment is classed as functional, cell-based.

Experiment [3] shares this target. Description: (§1) Agonist activity at human adenosine A1 receptor expressed in CHO cells assessed as Gi-mediated inhibition of forskolin-stimulated SPAP secretion incubated for 10 mins prior to forskolin challenge measured after 5 hrs by spectrophotometry. The experiment is classed as functional, cell-based.
The target in experiment [4] is T2, Adenosine receptor A1 (Homo sapiens, UniProt P30542).
T2 sequence (P30542 whole entry): T1 sequence (whole entry)
The experiment is described as §1. It is filed as functional, cell-based.

Experiment [5] deals with T1, Adenosine receptor A1 (Homo sapiens). Description: Binding affinity to human adenosine A1 receptor expressed in CHO cells at 100 nM after 30 mins by confocal microscopy. It is filed as cell-based.
Experiment [6] has the same target. Briefly: (§2) Agonist activity at human adenosine A1 receptor expressed in CHO cells assessed as Gs-mediated activation of forskolin-stimulated SPAP secretion incubated for 10 mins prior to forskolin challenge measured after 5 hrs by spectrophotometry. It is filed as functional, cell-based.
The target of experiment [7] is T2, Adenosine receptor A1. The description is as §2. The experiment is classed as functional, cell-based.
Experiment [8] addresses T1, Adenosine receptor A1 (Homo sapiens). Briefly: (§3) Displacement of [3H]DPCPX from human adenosine A1 receptor expressed in CHO cells after 2 hrs by scintillation counting analysis relative to control. The experiment is classed as cell-based. On the technique in general: Loss of bound radioactivity is the signal in a displacement assay; it reports binding, not function.
For experiment [9], the target named is T2, Adenosine receptor A1. The description is as §3. The experiment is classed as cell-based.
In experiment [10] the target is T1, Adenosine receptor A1 (Homo sapiens). Description: Agonist activity at human adenosine A1 receptor expressed in CHO cells assessed as Gs-mediated activation of forskolin-stimulated SPAP secretion up to 10^-5 M incubated for 10 mins prior to forskolin challenge measured after 5 hrs by spectrophotometry. The experiment is classed as functional, cell-based.
Experiment [11] has the same target. Briefly: Binding affinity to human adenosine A1 receptor expressed in CHO cells assessed as internalization at 100 nM after 30 mins by confocal microscopy. The experiment is classed as cell-based.

Turning to `CCNC(=O)[C@H]1O[C@@H](n2cnc3c(NCCOCCOCCNC(=O)COc4ccc(/C=C/C5=[N+]6C(=Cc7ccc(-c8cccs8)n7[B-]6(F)F)C=C5)cc4)ncnc32)[C@H](O)[C@@H]1O`, the result in experiment [1], in experiment [2] and in [6] was inactive. Further, the inhibition in [3] came out at 102%. Besides, the IC50 in experiment [4] is 74.1 nM. The result in experiment [5] was Active.
In the case of `CCNC(=O)[C@H]1O[C@@H](n2cnc3c(NCCNC(=O)COc4ccc(/C=C/C5=[N+]6C(=Cc7ccc(-c8cccs8)n7[B-]6(F)F)C=C5)cc4)ncnc32)[C@H](O)[C@@H]1O`, the result in experiment [1] and in experiment [2] was inactive. Further, the inhibition in [3] was 100%. Besides, in experiment [4], the IC50 is 2.04 nM. The outcome in experiment [5] was Active. The results for the Activity in [6] and in experiment [8] were 64% and 50%, respectively. Moreover, the concentration for a half-maximal effect (EC50) in experiment [7] is 234 nM. This compound also gave a Ki in experiment [9] of 363 nM.
Regarding `CCNC(=O)[C@H]1O[C@@H](n2cnc3c(NCCCCNC(=O)COc4ccc(/C=C/C5=[N+]6C(=Cc7ccc(-c8cccs8)n7[B-]6(F)F)C=C5)cc4)ncnc32)[C@H](O)[C@@H]1O`, the outcome in [1] and in experiment [2] was inactive. Moreover, the inhibition in [3] turned out to be 101%. Also, the IC50 in [4] was 5.25 nM. For the same compound, the Activity in [6] came to 155%; in [8] it was 43%. In addition, the EC50 in experiment [7] is 2340 nM. For the same compound, the Ki in [9] is 263 nM.
Regarding `CCNC(=O)[C@H]1O[C@@H](n2cnc3c(NCCCNC(=O)COc4ccc(/C=C/C5=[N+]6C(=Cc7ccc(-c8cccs8)n7[B-]6(F)F)C=C5)cc4)ncnc32)[C@H](O)[C@@H]1O`, the outcome in experiment [1] and in [2] was inactive. The inhibition in experiment [3] was found to be 97%. For the same compound, the IC50 in experiment [4] was 0.49 nM. For the same compound, the outcome in experiment [5] was Active. For the same compound, the values for the Activity in [6] and in experiment [8] were 188% and 59%, respectively. Further, the EC50 in experiment [7] was 263 nM. The Ki in [9] was 417 nM.
On to `CCNC(=O)[C@H]1O[C@@H](n2cnc3c(NCCCCCCCCNC(=O)COc4ccc(/C=C/C5=[N+]6C(=Cc7ccc(-c8cccs8)n7[B-]6(F)F)C=C5)cc4)ncnc32)[C@H](O)[C@@H]1O`, for which the outcome in [1], in [10], in experiment [2] and in experiment [6] was inactive. In addition, the IC50 in experiment [4] was 26.9 nM.
`CCNC(=O)[C@H]1O[C@@H](n2cnc3c(NCCOCCOCCOCCNC(=O)COc4ccc(/C=C/C5=[N+]6C(=Cc7ccc(-c8cccs8)n7[B-]6(F)F)C=C5)cc4)ncnc32)[C@H](O)[C@@H]1O`: the outcome in experiment [2] and in [6] was inactive. Moreover, the inhibition in experiment [3] is 99%. In addition, in experiment [4], the half-maximal inhibitory concentration (IC50) is 191 nM.
In the case of `CCNC(=O)[C@H]1O[C@@H](n2cnc3c(NCCCCCCCCCCCNC(=O)COc4ccc(/C=C/C5=[N+]6C(=Cc7ccc(-c8cccs8)n7[B-]6(F)F)C=C5)cc4)ncnc32)[C@H](O)[C@@H]1O`, the result in experiment [11] was Active. In addition, the result in experiment [1], in experiment [10], in experiment [2] and in experiment [6] was inactive. Besides, the IC50 in [4] was 129 nM.
With `CCNC(=O)[C@H]1O[C@@H](n2cnc3c(N)ncnc32)[C@H](O)[C@@H]1O`, in [2], the outcome was inactive. Moreover, the inhibition in experiment [3] stood at 105%. Also, the figures for the Activity in [6] and in [8] were 177% and 73%, respectively.
